Results on 13 compounds are retold here after patent US5656591A, “Antimicrobial agents and method for treating products therewith” (Morinaga Milk Industry Co., Ltd., priority 1992, dated 1997).

Holding throughout (format): cell-based
In assay [1] the test system is Staphylococcus aureus (JCM-2151). The assay can be described thus: Viability assay (survival rate) in cow's milk medium. Set-up: key to survival rate: % of control colony count 1 (control colony count 2 at peptide 0). As to conditions: for antimicrobial activity of the compound added without antimicrobial peptide or lactoferrin hydrolysate (in words): compound alone; for effect of the coexisting compound on the antimicrobial activity of the lactoferrin hydrolysate (in words): with lactoferrin hydrolysate 1. The procedure:
The colonies grown on the culture medium were scraped by a platinum loop and cultivated in 1% peptone (by Difco Company) culture medium for several hours at 37° C., and the resultant microbial culture at logarithmic phase was used as the preculture in a serial concentration of 3×10^8 /ml.
A quantity of the resultant solutions of the samples were selectively mixed with a quantity of the basal medium, thereby test media for the respective tests were prepared in the combinations and eventual concentrations as specified in the respective tests.
Utilizing the samples (5), (7), (8), (9), (10), (14), (15), (17), (18) and (19), test media were prepared in the same manner as in the preparation of the test media containing sample (3) and the like, except that the aqueous solution (in the cases of samples (5) and (7), aqueous suspensions) were not dealt with sterilization filters.
To 2 ml aliquots of test media prepared in (3-1) (supra), […] aliquots of the preculture of Staphylococcus aureus prepared in (1) (2. Method, supra) were added, then incubated at 37° C. for 1 hour, 200 μl aliquots of the resultant cultures were taken out and diluted with 1% peptone solution in a series of 10^n respectively, 110 μl aliquots of the resultant dilution series were spread onto plates of standard agar culture medium, and after incubation at 37° C. for 24 hours the number of colonies grown on the plates were counted (Test. Colony Count).
Control coloney counts 1 were determined in the same manner as in the determination of the test coloney counts, except that […] aliquots of the preculture of Staphylococcus aureus prepared in (1) (2. Method, supra) were added to 2 ml aliquots of the respective control media 1 prepared in (3-2) (supra). Furthermore, control coloney counts 2 were determined in the same manner as in the determination of the test coloney counts, except that […] aliquots of the preculture of Staphylococcus aureus prepared in (1) (supra) were added to 2 ml aliquots of the respective control media 1 prepared in (3-2) (supra).
Survival rate 1=(Test Colony Count/Control Colony Count 1)×100
Survival rate 2=(Control Colony Count 2/Control Colony Count 1)×100
(Note: In the tables shown hereinafter, vulues of survival rate 2 are indicated in the row where the concentration of antimicrobial peptide or lactoferrin hydrolysate is 0.)

The test system of assay [2] is Staphylococcus aureus JCM2151. In words: Test for antimicrobial activity (turbidity): growth inhibiting concentration of antibiotics. As to conditions: for MIC: Staphylococcus aureus. The protocol:
(§1) Precultures of test microorganisms to be used in the tests described hereunder were prepared in such a manner that: from the frozen preservation of dispersions of test microorganisms, a loop of the respective strains of the microorganisms were taken out and spread onto TRI PETIT CASE SOYA AGAR MEDIA (by BBL Company), and incubated at 37° C. for 16 hours; the colonies grown on the culture media were scraped by a platinum loop and cultivated in 2.1% Mueller-Hington Broth (by Difco Company) respectively for several hours at 37° C. The resultant microbial cultures at logarithmic phase in 3×10^8 /ml of microbial concentration were used as the precultures.
(§2) The test media to be used in the respective tests were prepared in such a manner that: aqueous solutions in a predetermined concentration of the lactoferrin hydrolysates or the lactoferrin-derived antimicrobial peptides of (1) and (2) in Preparation of Samples (supra), as well as the samples of antibiotics of (3) (supra) were respectively sterilized with filters (by Advantec Company); then a quantity of the resultant solutions of respective samples were selectively added to a quantity of basal medium (Mueller-Hington Broth) prepared in the eventual concentration of 2.1%, thereby combinations of the samples and their concentrations in the respective test media were adjusted as specified in the respective tests.
(§3) Antimicrobial activity was examined as follows: A quantity of the respective precultures prepared in (1) immediately above was diluted with 2.1% Mueller-Hington Broth to result in 2×10^6 /ml of microbial concentration; 100 μl aliquots of the resultant liquid were added to 100 μl aliquots of one of the test media as specified in the respective test; the resultant media were incubated at 37° C. for 16 hours; then the turbidity of the resultant culture broths were measured thereby antimicrobial activity was examined.
(§4) Components in the test and control media and eventual concentrations thereof were adjusted by properly combining 0 mg, 0.4 mg, 1.6 mg and 6.4 mg/ml of lactoferrin hydrolysate of (1) (in Preparation of Samples, supra). or 0 μg, 16 μg, 64 μg, and 256 μg/ml of lactoferrin-derived antimicrobial peptides of (2) (in Preparation of Samples, supra), and 0 μg, 0.01 μg, 0.1 μg, 1 μg, and 10 μg/ml of antibiotics of (3) (supra), then antimicrobial activity of the combined use of the components against Escherichia coli 0-111 and Staphylococcus aureus (JCM2151) as well as growth inhibiting concentrations of the antibiotics were investigated.

The test system of the next assay is Escherichia coli 0-111. The description is as above. The protocol:
as §1, §2, §3, §4

Setting [3] is: with antimicrobial peptide Seq. ID No. 26.
Setting [4] is: with antimicrobial peptide Seq. ID No. 27.
Where [5] appears, read: lactoferrin hydrolysate 0 mg/ml.
Setting [6] is: lactoferrin hydrolysate 0.4 mg/ml.
[7] abbreviates: lactoferrin hydrolysate 1.6 mg/ml.
Where [8] appears, read: lactoferrin hydrolysate 6.4 mg/ml.

For the compound `OCC(O)CO` [glycerol, Glycerol], the “antimicrobial activity of the compound added without antimicrobial peptide or lactoferrin hydrolysate (in words)” value in assay [1] is “no antimicrobial activity was observed”. Moreover, in assay [1] (setting [3]), the “effect of the coexisting compound on the antimicrobial activity of the antimicrobial peptide (in words)” value (“effect … of the antimicrobial peptide (in words)” below) was “augments the antimicrobial activity of the peptide”.
On the same counts, the results for `CCCCCCCCCCCCCC(=O)OCC(O)CO` (racemic) [1-monomyristoyl-rac-glycerol, 1-monomyristoyl-rac-Glycerol] are “the antimicrobial activity is low” and “augmented the antimicrobial activity of the peptide”.
Turning to `O=C([O-])CN(CCN(CC(=O)[O-])CC(=O)O)CC(=O)O.[Na+].[Na+]` [EDTA.Na2, EDTA·Na2], the survival rate in assay [1] (Test 9: lactoferrin hydrolysate 0, EDTA.Na2 0.1 mg/ml) is recorded as 122; in assay [1] (Test 9: lactoferrin hydrolysate 0, EDTA.Na2 1 mg/ml) it was 115; in assay [1] (Test 9: lactoferrin hydrolysate 0, EDTA.Na2 5 mg/ml) it was 101. Moreover, in assay [1], the “antimicrobial activity of the compound added without antimicrobial peptide or lactoferrin hydrolysate (in words)” value is “no antimicrobial activity was observed”. Moreover, the “effect of the coexisting compound on the antimicrobial activity of the lactoferrin hydrolysate (in words)” value in assay [1] is “augments the antimicrobial activity of the lactoferrin hydrolysate”.
Consider `CCCCCCCC(=O)OCC(O)CO` (racemic) [monocapryloyl-glycerol, 1-Monocapryloyl-rac-Glycerol], for which the “antimicrobial activity of the compound added without antimicrobial peptide or lactoferrin hydrolysate (in words)” value in assay [1] was “no antimicrobial activity was observed”. For the same compound, the “effect … of the antimicrobial peptide (in words)” value in assay [1] (setting [3]) is on record as “augments the antimicrobial activity of the peptide”.
For the compound `CCCCCCCCCCCCCCCCCC(=O)OCC(O)CO` (racemic) [1-monostearoyl-rac-glycerol], the survival rate in assay [1] (Test 19: peptide 0, 1-monostearoyl-rac-glycerol 0.5 mg/ml) was found to be 116%; in assay [1] (Test 19: peptide 0, 1-monostearoyl-rac-glycerol 1 mg/ml), 133%; in assay [1] (Test 19: peptide 0, 1-monostearoyl-rac-glycerol 2 mg/ml), 98%. The “antimicrobial activity of the compound added without antimicrobial peptide or lactoferrin hydrolysate (in words)” value in assay [1] is “no antimicrobial activity was observed”. Moreover, the “effect … of the antimicrobial peptide (in words)” value in assay [1] (setting [3]) is “augments the antimicrobial activity of the antimicrobial peptide”.
Consider `CCO` [ethyl alcohol, Ethyl Alcohol], for which the “antimicrobial activity of the compound added without antimicrobial peptide or lactoferrin hydrolysate (in words)” value in assay [1] is listed as “no antimicrobial activity was observed”. For the same compound, the “effect … of the antimicrobial peptide (in words)” value in assay [1] (setting [3]) is reported as “potentiates the antimicrobial activity of the peptide”.
For `N[C@@H](CS)C(=O)O` [L-cysteine, L-Cysteine], the “antimicrobial activity of the compound added without antimicrobial peptide or lactoferrin hydrolysate (in words)” value in assay [1] is on record as “antimicrobial activity was low”. Besides, in assay [1] (setting [4]), the “effect … of the antimicrobial peptide (in words)” value was “augments the antimicrobial activity of the peptide”.
For the compound `O=C1O[C@H]([C@@H](O)CO)C(O)=C1O` [ascorbic acid, Ascorbic Acid], in assay [1], the “antimicrobial activity of the compound added without antimicrobial peptide or lactoferrin hydrolysate (in words)” value was “no antimicrobial activity was observed” and the “effect of the coexisting compound on the antimicrobial activity of the lactoferrin hydrolysate (in words)” value was “augments the antimicrobial activity of the lactoferrin hydrolysate 1”. Besides, the “effect … of the antimicrobial peptide (in words)” value in assay [1] (setting [4]) is listed as “augments the antimicrobial activity of the peptide”.
Turning to tocopherol, the survival rate in assay [1] (Test 3: peptide 0, tocopherol 0.1 mg/ml) was determined as 101; in assay [1] (Test 3: peptide 0, tocopherol 0.5 mg/ml), 113; in assay [1] (Test 3: peptide 0, tocopherol 1 mg/ml), 112. Further, the “antimicrobial activity of the compound added without antimicrobial peptide or lactoferrin hydrolysate (in words)” value in assay [1] was “no antimicrobial activity was observed”. In assay [1] (setting [3]), the “effect … of the antimicrobial peptide (in words)” value was “augments the antimicrobial activity of the peptide”.
Consider Polyphosphoric Acid, for which the survival rate in assay [1] (Test 12: lactoferrin hydrolysate 0, polyphosphoric acid 0.1 mg/ml) was 140; in assay [1] (Test 12: lactoferrin hydrolysate 0, polyphosphoric acid 1 mg/ml) it was 124; in assay [1] (Test 12: lactoferrin hydrolysate 0, polyphosphoric acid 5 mg/ml), 111. The “antimicrobial activity of the compound added without antimicrobial peptide or lactoferrin hydrolysate (in words)” value in assay [1] is listed as “no antimicrobial activity was observed”. Moreover, in assay [1], the “effect of the coexisting compound on the antimicrobial activity of the lactoferrin hydrolysate (in words)” value is “augments the antimicrobial activity of the lactoferrin hydrolysate 1”.
Consider `O=C(O)CC(O)(CC(=O)O)C(=O)O` [citric acid, Citric Acid], for which the “effect of the coexisting compound on the antimicrobial activity of the lactoferrin hydrolysate (in words)” value in assay [1] is reported as “augments the antimicrobial activity of the lactoferrin hydrolysate 1”.
As for `CC(O)CO` (stereo not shown) [propylene glycol, Propylene Glycol], the “antimicrobial activity of the compound added without antimicrobial peptide or lactoferrin hydrolysate (in words)” value in assay [1] is listed as “no antimicrobial activity was observed”. The “effect … of the antimicrobial peptide (in words)” value in assay [1] (setting [3]) was “augmented the antimicrobial activity of the peptide”.
One may read the MIC as the lowest concentration that inhibits growth of the organism. On to `CC[C@H]1OC(=O)[C@H](C)[C@@H](O[C@H]2C[C@@](C)(OC)[C@@H](O)[C@H](C)O2)[C@H](C)[C@@H](O[C@@H]2O[C@H](C)C[C@H](N(C)C)[C@H]2O)[C@](C)(O)C[C@@H](C)C(=O)[C@H](C)[C@@H](O)[C@]1(C)O` [erythromycin], for which the MIC in assay [2] (JCM2151, antimicrobial peptide (Seq. ID No. 27) 0 μg/ml) is more than 1 µg/mL; in assay [2] (JCM2151, antimicrobial peptide (Seq. ID No. 27) 16 μg/ml), 1 µg/mL; in assay [2] (JCM2151, antimicrobial peptide (Seq. ID No. 27) 64 μg/ml), 1 µg/mL; in assay [2] (JCM2151, antimicrobial peptide (Seq. ID No. 27) 256 μg/ml) it was 0.01 µg/mL; in the assay with Escherichia coli 0-111 (Escherichia coli, 0111, antimicrobial peptide (Seq. ID No. 27) 0 μg/ml) it was more than 1 µg/mL; in the assay with Escherichia coli 0-111 (Escherichia coli, 0111, antimicrobial peptide (Seq. ID No. 27) 16 μg/ml), 1 µg/mL. In addition, the MIC in the assay with Escherichia coli 0-111 (Escherichia coli, 0111, antimicrobial peptide (Seq. ID No. 27) 64 μg/ml) is 1 µg/mL; with Escherichia coli 0-111 (Escherichia coli, 0111, antimicrobial peptide (Seq. ID No. 27) 256 μg/ml), 0.01 µg/mL. Further, the “Growth inhibiting Concentration of antibiotics” value was more than 1 µg/mL in assay [2] (setting [5]); 1 µg/mL in assay [2] (setting [6]); 1 µg/mL in assay [2] (setting [7]); 0.01 µg/mL in assay [2] (setting [8]); more than 1 µg/mL in the assay with Escherichia coli 0-111 (setting [5]); 1 µg/mL with Escherichia coli 0-111 (setting [6]). Moreover, the “Growth inhibiting Concentration of antibiotics” value in the assay with Escherichia coli 0-111 (setting [7]) turned out to be 1 µg/mL; in the assay with Escherichia coli 0-111 (setting [8]), 0.1 µg/mL.
